# Experimental data reported in US7968552B2, “Oxadiazolidinedione compound” (Astellas Pharma Inc., priority 2006, dated 2011).
# What was measured:
# human GPR40 = target: T1, human GPR40 (Homo sapiens, UniProt O14842, R211H); experiment: Measurement of GPR40 agonist action (FLIPR, intracellular calcium); format: cell-based; conditions: CHO cell strain expressing human GPR40; changes in fluorescence intensity after 1 minute of the measurement
# T1 construct: expressed in transfected cells
# From the text: Test Method 1: Measurement of GPR40 Agonist Action […]
# i) Cloning of Human GPR40
# Complete length sequence of GPR40 was obtained by carrying out a PCR method in accordance with the procedure shown below using a human genomic DNA (Clontech) as the template.
# An oligonucleotide consisting of the nucleotide sequence represented by SEQ ID NO:1 was used as the forward primer, and an oligonucleotide consisting of the nucleotide sequence represented by SEQ ID NO:2 as the reverse primer. In this connection, a nucleotide sequence comprising a XbaI recognition region is added to the respective 5′-termini of the aforementioned forward primer and reverse primer. PCR was carried out in the presence of 5% dimethyl sulfoxide (DMSO) using a Taq DNA polymerase (Ex Taq DNA polymerase; Takara Bio), by repeating 30 times of a cycle consisting of 94° C. (15 seconds)/55° C. (30 seconds)/72° C. (1 minute). As a result, a DNA fragment of about 0.9 kbp was amplified. This DNA fragment was digested with XbaI and then inserted into the XbaI site of a plasmid pEF-BOS-dhfr (Nucleic acids Research, 18, 5322, 1990), thereby obtaining a plasmid pEF-BOS-dhfr-GPR40.
# Nucleotide sequence of the GPR40 gene in the pEF-BOS-dhfr-GPR40 was determined by the dideoxy terminator method using a DNA sequencer (ABI 377 DNA Sequencer, Applied Biosystems). Nucleotide sequence of the GPR40 gene was as the nucleotide sequence represented by SEQ ID NO:3. The nucleotide sequence represented by SEQ ID NO:3 has an open reading frame (ORF) of 903 bases, and the amino acid sequence deduced from this ORF (300 amino acids) was as the amino acid sequence represented by SEQ ID NO:4. […]
# ii) Preparation of GPR40 Stable Expression Cell
# As the cell for expressing GPR protein, CHO dhfr cell (a dihydrofolate reductase (dhfr)-deficient CHO cell) was used. Also, as the plasmid for expressing GPR40 protein, the plasmid pEF-BOS-dhfr-GPR40 obtained in the aforementioned i) was used. The CHO dhfr cell was inoculated into αMEM medium containing 10% fetal calf serum (FCS) using a 6 well plate (Asahi Techno Glass) and cultured overnight to an 80 to 90% confluence, and then 2 μg per well of the plasmid pEF-BOS-dhfr-GPR40 was gene-transferred using a transfection reagent (Lipofectamine 2000; Invitrogen). After 24 hours of culturing from the gene transfer, the cells were diluted and inoculated again. […] After 20 days of culturing, the thus formed colonies of cells were individually recovered and cultured to obtain CHO cells stably expressing GPR40. From these, cells having high reactivity for intrinsic ligands oleic acid and linoleic acid were selected. […]
# iii) Measurement of GPR40 Agonist Action
# This test was measured by FLIPR (registered trademark, Molecular Device) using a change in intracellular calcium concentration as the index. The test method is shown in the following.
# A CHO cell strain in which human GPR40 was expressed was inoculated into a 384 well black plate (Becton Dickinson) in 6×10^3 cells per well portions and cultured overnight in a CO2 incubator.
# Using Calcium-3 assay kit (Molecular Device), one bottle of the phosphorescent pigment was dissolved in 10 ml of HBSS-HBEPES buffer (pH 7.4, 1×HBSS, 20 mM HEPES, Invitrogen). A 35.68 mg of probenecid (Sigma) was dissolved in 250 μl of 1M NaOH and adjusted by adding 250 μl of the HBSS-HEPES buffer. A phosphorescent pigment solution was prepared by mixing 16 ml of HBSS-HEPES buffer, 640 μl of the phosphorescent pigment and 32 μl of probenecid per one plate. The medium was discarded from the plate, and the phosphorescent pigment solution was dispensed in 40 μl per well portions and then incubated at room temperature for 2 hours. Each compound to be tested was dissolved in DMSO and then diluted with HBSS-HEPES buffer and dispensed in 10 μl portions into the plate, thereby starting the reaction, and changes in the intracellular calcium concentration were measured by FLIPR. […]
# [1] = system: blood glucose after glucose loading; experiment: Normal mice single oral glucose tolerance test; format: in vivo; conditions: Mus musculus, 0.5 h, male ICR mice, 10 mg/kg orally 30 minutes before glucose loading (2 g/kg), 30 minutes after glucose loading, based on control group, read-out: Blood glucose lowering ratio
# Protocol: Test Method 3: Normal Mice Single Oral Glucose Tolerance Test
# This test examined on the blood glucose suppression action of compounds to be tested after glucose loading, using normal mice. The test method is shown below.
# Male ICR mice (6 weeks of age) after 1 week of preliminary rearing were subjected to overnight fasting and used as the animals to be tested. Each compound to be tested was made into a 0.5% methyl cellulose suspension and orally administered at a dose of 10 mg/kg 30 minutes before the glucose loading (2 g/kg). Administration of 0.5% methyl cellulose was used in the control group. Blood glucose lowering ratio (%) after 30 minutes of glucose loading was calculated based on the control group.
# MIN6 cell = experiment: Insulin secretion-promoting action using MIN6 cell; design: species or system mouse; conditions: relative activity value at 1 μM of each compound, based on 100% control (DMSO), 2 hours incubation
# Protocol: Test Method 2: Insulin Secretion-Promoting Action Using MIN6 Cell
# This rest examined insulin acceleration action of compounds to be tested using a mouse pancreas β cell strain, MIN6 cell. The test method is shown in the following.
# The MIN6 cell was dispensed in 5×10^4 cells/well (200 μl) portions into a 96 well plate. DMEM (25 mM glucose) containing 10% FBS, 55 μM 2-mercaptoethanol, 100 U/ml penicillin and 100 μg/ml streptomycin was used as the medium. The medium was discarded 2 days thereafter using an aspirator, followed by washing once with 200 μl of KRB-HEPES (116 mM NaCl, 4.7 mM KCl, 1.2 mM KH2PO4, 1.2 mM MgSO4, 0.25 mM CaCl2, 25 mM NaHCO3, 0.005% FFA Free BSA, 24 mM HEPES (pH 7.4)) containing 2.8 mM glucose, which was warmed up to 37° C., and subsequent incubation again at 37° C. for 1 hour by adding 200 μl of the same buffer. After discarding the above-mentioned buffer using an aspirator and again washing with the buffer (200 μl), a predetermined concentration of a compound to be tested was added to the KRB-HEPES containing 2.8 mM or 22.4 mM glucose and added to respective wells in 100 μl portions and incubated at 37° C. for 2 hours. The above-mentioned samples were fractioned and diluted 100 times, and the insulin concentration was determined using an insulin RIA kit (Amersham RI). The activity value was shown by a relative activity value (%) at the time of 1 μM of each compound, based on 100% control (DMSO).
# T1 sequence (O14842 whole entry R211H): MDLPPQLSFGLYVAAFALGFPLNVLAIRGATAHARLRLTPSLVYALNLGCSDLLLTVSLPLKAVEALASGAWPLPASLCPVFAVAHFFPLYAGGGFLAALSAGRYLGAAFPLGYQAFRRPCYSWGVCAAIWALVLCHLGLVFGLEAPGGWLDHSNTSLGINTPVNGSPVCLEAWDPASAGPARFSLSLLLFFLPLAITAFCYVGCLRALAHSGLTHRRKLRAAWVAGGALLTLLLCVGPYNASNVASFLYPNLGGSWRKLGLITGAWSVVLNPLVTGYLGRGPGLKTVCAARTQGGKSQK
SMILES,EC50 (human GPR40) [nM],inhibition in vivo at 10 mg/kg [1] [%],Insulin secretion-accelerating action (MIN6 cell) [%]
Cc1cc(OCC[C@H](C)O)ccc1-c1cccc(COc2ccc(Cn3oc(=O)[nH]c3=O)cc2)c1C [Example 173],660,21,
CCOCCOc1cc(C)c(-c2cccc(COc3ccc(Cn4oc(=O)[n-]c4=O)cc3)c2)c(C)c1.[Na+] [Example 44],670,21,287
Cc1cccc(C)c1-c1cccc(COc2ccc(Cn3oc(=O)[n-]c3=O)cc2)c1.[Na+] [Example 39],260,26,192
Cc1cc(OS(C)(=O)=O)cc(C)c1-c1cccc(COc2ccc(Cn3oc(=O)[nH]c3=O)cc2)c1 [Example 119],220,22,
"Cc1cc(OCCO)ccc1-c1cccc(COc2ccc(Cn3oc(=O)[nH]c3=O)cc2)c1 [Example 14, sodium 2-(4-{[4′-(2-hydroxyethoxy)-2′-methylbiphenyl-3-yl]methoxy}benzyl)-3,5-dioxo-1,2,4-oxadiazolidin-4-ide]",390,34,
CC(=O)NCCCOc1ccc(-c2cccc(COc3ccc(Cn4oc(=O)[nH]c4=O)cc3)c2C)c(C)c1 [Example 189],59,30,
"COc1cc(F)c(-c2cccc(COc3ccc(Cn4oc(=O)[n-]c4=O)cc3)c2)c(F)c1.[Na+] [Example 4, sodium 2-{4-[(2′,6′-difluoro-4′-methoxybiphenyl-3-yl)methoxy]benzyl}-3,5-dioxo-1,2,4-oxadiazolidin-4-ide]",350,,177
O=c1[nH]c(=O)n(Cc2ccc(OCc3cccc(-c4ccc(OCCO)cc4)c3)cc2)o1 [Example 8],31,,
"Cc1cccc(C)c1-c1cccc(C(=O)Nc2ccc(Cn3oc(=O)[nH]c3=O)cc2)c1 [Example 16, sodium 2-(4-{[(2′,6′-dimethylbiphenyl-3-yl)carbonyl]amino}benzyl)-3,5-dioxo-1,2,4-oxadiazolidin-4-ide]",450,,
Cc1cc(C(=O)NC2CCOCC2)ccc1-c1cccc(COc2ccc(Cn3oc(=O)[nH]c3=O)cc2)c1 [Example 117],290,21,
"O=c1[nH]c(=O)n(Cc2ccc(OCc3cccc(Br)c3)cc2)o1 [Example 9, 2-{4-[(3-bromobenzyl)oxy]benzyl}-1,2,4-oxadiazolidine-3,5-dione]",800,,
COc1cc(C)c(-c2cccc(COc3ccc(Cn4oc(=O)[nH]c4=O)cc3)c2)c(C)c1 [Example 47],420,36,
Cc1cccc(C)c1-c1cncc(COc2ccc(Cn3oc(=O)[nH]c3=O)cc2)c1 [Example 82],930,,
Cc1cc(OCC[C@H](C)O)cc(C)c1-c1cccc(COc2ccc(Cn3oc(=O)[nH]c3=O)cc2)c1C [Example 193],520,46,
N#Cc1ccc(-c2cccc(COc3ccc(Cn4oc(=O)[nH]c4=O)cc3)c2)cc1 [Example 34],,,169
Cc1cc(OCCC(C)(C)O)cc(C)c1-c1cccc(COc2ccc(Cn3oc(=O)[nH]c3=O)cc2)c1C [Example 166],220,35,
O=c1[nH]c(=O)n(Cc2ccc(OCc3cccc(-c4c(Cl)cccc4Cl)c3)cc2)o1 [Example 60],460,35,
Cc1cccc(C)c1-c1cccc(COc2ccc(Cn3oc(=O)[nH]c3=O)cn2)c1 [Example 99],450,,
Cc1cccc(C)c1-c1cccc(CNc2ccc(Cn3oc(=O)[nH]c3=O)cc2)c1 [Example 406],120,42,
O=c1[nH]c(=O)n(Cc2ccc(OCc3cccc(-c4cccnc4)c3)cc2)o1 [Example 33],640,,
O=c1[n-]c(=O)n(Cc2ccc(OCc3cccc(Oc4ccccc4)c3)cc2)o1.[Na+] [Example 38],650,,228
COc1cccc(OC)c1-c1cccc(COc2ccc(Cn3oc(=O)[nH]c3=O)cc2)c1 [Example 56],760,31,
